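48-hour exposure; five concentrations; linearly interpolated endpoints. GI50: concentration for 50% inhibition of growth. The concentration for full growth arrest is given as TGI.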
Experiments:
Experiment in all cases: growth of human tumour cells (NCI), 48 h
[1] = test system: SW-620 colon
[2] = test system: UO-31 renal
[3] = test system: NCI-H23 lung
[4] = test system: RPMI-8226 leukemia
[5] = test system: SF-268 CNS
[6] = test system: IGROV1 ovarian
[7] = test system: HL-60(TB) leukemia
[8] = test system: HCT-15 colon
[9] = test system: A549 NSCLC
[10] = test system: HOP-92 NSCLC

SMILES	TGI [1]	TGI [2]	TGI [3]	TGI [4]	TGI [5]	TGI [6]	TGI [7]	TGI [8]	TGI [9]	TGI [10]	GI50 [1]	GI50 [2]	GI50 [3]	GI50 [4]	GI50 [5]	GI50 [6]	GI50 [7]	GI50 [8]	GI50 [9]	GI50 [10]
CC1(C)OC2COC(c3[nH]nc4c(=O)[nH]c(=O)[nH]c34)C2O1 (stereo not drawn)	> 100 µM	> 100 µM	> 100 µM	> 100 µM	> 100 µM	> 100 µM	> 100 µM	> 100 µM	> 100 µM	> 100 µM										
CCN(CC)c1ccc(/C=N/NC(=O)c2ccccc2Nc2ccnc(C(F)(F)F)c2)c(O)c1	> 100 µM	5.76 µM	> 100 µM	0.601 µM	> 100 µM	71.4 µM	0.518 µM	> 100 µM	> 100 µM	> 100 µM	407 nM	112 nM	528 nM	41.7 nM	94.2 nM	74.7 nM	162 nM	45.7 nM	235 nM	428 nM
CCCC(=O)Nc1c(I)cc(I)c(CC(CC)C(=O)O)c1I (stereo not drawn)	> 100 µM	> 100 µM	> 100 µM	> 100 µM	> 100 µM	> 100 µM	> 100 µM	> 100 µM	> 100 µM	> 100 µM	> 100000 nM	> 100000 nM	> 100000 nM	> 100000 nM	> 100000 nM	> 100000 nM	> 100000 nM	> 100000 nM	> 100000 nM	> 100000 nM
Nc1nc(CC2(O)CCCCC2)cc(-c2ccccc2)n1	65 µM	> 91.6 µM	> 66.4 µM	78.6 µM	> 100 µM	> 100 µM	47.9 µM	> 75.5 µM	> 72.4 µM	> 71.9 µM										
O=C(O)CNC(=O)C1NC(C(F)(F)F)(C(F)(F)F)OC1(C(F)(F)F)C(F)(F)F (stereo not drawn)	> 100 µM	> 100 µM	> 100 µM	> 100 µM	> 100 µM	> 100 µM	> 100 µM	> 100 µM	> 100 µM	> 100 µM										
O=C(COC(=O)c1cccc2c(=O)c3ccccc3[nH]c12)Nc1ccc(S(=O)(=O)Nc2ncccn2)cc1	> 100 µM	> 100 µM	> 100 µM	> 100 µM	> 100 µM	> 100 µM	71.3 µM	> 100 µM	> 100 µM	51 µM										
COc1ccc2c(c1)c(-c1ccc(-c3cn(C)c4ccc(OC)cc34)o1)cn2C	16.7 µM	15 µM	> 100 µM	5.07 µM	> 100 µM	> 100 µM	5.2 µM	29.7 µM	> 100 µM	10.3 µM	4550 nM	3600 nM	17300 nM	2250 nM	9240 nM	29600 nM	1980 nM	4220 nM	18400 nM	1030 nM
COC1C(O)CC(OC2CC(OC3CC(O[C@@H]4C(=O)c5c(cc6cc(OC7CC(OC8CC(O)C(O)C(C)O8)C(O)C(C)O7)c(C)c(O)c6c5O)CC4[C@H](OC)[C@@H](O)C(C)=O)OC(C)C3O)OC(C)C2O)OC1C (stereo partly drawn)	> 33.3 µM	11.3 µM	1.12 µM	> 33.3 µM	> 33.3 µM	> 33.3 µM	6.94 µM	> 33.3 µM	> 33.3 µM	> 33.3 µM	12.5 nM	31.5 nM	3.33 nM	14 nM	15.5 nM	19.7 nM	23.6 nM	335 nM	7.97 nM	32 nM
O=S(=O)(NCCNc1cc(-c2cn(-c3ccccc3)nc2-c2cccc(O)c2)ccn1)c1ccc(Br)cc1	9.68 µM	6.96 µM	11.4 µM	5.73 µM	7.06 µM	15.5 µM	5.76 µM	4.39 µM	15 µM	5.06 µM	3040 nM	2190 nM	2700 nM	2210 nM	2250 nM	3330 nM	2190 nM	1800 nM	3600 nM	2000 nM
CC(=Nc1ccccc1)C1=C(O)C(Cc2ccc(F)cc2)NC1=O (stereo not drawn)	> 100 µM	> 100 µM	> 100 µM	> 100 µM	> 100 µM	> 100 µM	> 100 µM	> 100 µM	> 100 µM	> 100 µM	432 nM	5420 nM	1710 nM	859 nM	4450 nM	1710 nM	287 nM	488 nM	675 nM	327 nM
COc1cc2ccc3c4cc(OC)c(OC(C)C)cc4c[n+](C)c3c2cc1OC	> 100 µM	> 100 µM	> 100 µM	> 100 µM	> 100 µM	> 100 µM	> 100 µM	> 100 µM	> 100 µM	> 100 µM										
S=C1SCN(C2CCCCCCCCCCC2)CN1C1CCCCCCCCCCC1	> 100 µM	> 100 µM	> 100 µM	> 100 µM	> 100 µM	> 100 µM	> 100 µM	> 100 µM	> 100 µM	> 100 µM										
CN=C(N)NC	> 100 µM	> 100 µM	> 100 µM	> 100 µM	> 100 µM	> 100 µM	> 100 µM	> 100 µM	> 100 µM	> 100 µM										
C/C(=N\NS(=O)(=O)c1c(C)cc(C)cc1C)c1ccc[n+]([O-])n1	22.3 µM	52.8 µM	34 µM	31.4 µM	53.7 µM	99.2 µM	25.1 µM	28.5 µM	> 100 µM	22.8 µM										
CNC(=S)N(C1CCCCC1)C1CCCCC1	> 100 µM	> 100 µM	> 100 µM	> 100 µM	> 100 µM	> 100 µM	> 100 µM	> 100 µM	> 100 µM	> 100 µM										
CCOc1ccc(N=Cc2ccc3ccccc3n2)cc1	> 100 µM	> 100 µM	> 100 µM	> 100 µM	> 100 µM	> 100 µM	> 76.8 µM	> 100 µM	> 100 µM	> 100 µM										
CCN(CC)CCC(=O)N1C/C(=C/c2ccccc2)C(=O)/C(=C\c2ccccc2)C1	0.629 µM	3.78 µM	3.91 µM	0.568 µM	5.4 µM	9.69 µM	1.62 µM	3.91 µM	17.1 µM	17 µM										
O=C(Nc1ccc(-n2ccc3c(NC(=O)c4ccccc4)nccc32)cc1)c1ccc(N2CCOCC2)c(C(F)(F)F)c1	> 100 µM	19.5 µM	> 44.8 µM	> 100 µM	> 77.1 µM	> 42.6 µM	> 100 µM	> 43.4 µM	4.15 µM	18.1 µM	69.7 nM	557 nM	1390 nM	91.2 nM	122 nM	192 nM	1010 nM		48.8 nM	1960 nM
Cc1nc(-n2nc(-c3ccccc3)cc2-c2ccccc2)sc1C(=O)/C=C/c1ccc(Cl)cc1	61.1 µM	21.1 µM	34 µM	26.7 µM	> 100 µM	> 100 µM	33.1 µM	> 100 µM	64.9 µM	43 µM										
COC(=O)c1ccc(/C=C/S(=O)(=O)c2ccccc2)cc1	> 100 µM	> 100 µM	> 100 µM	> 100 µM	> 100 µM	> 100 µM	> 100 µM	> 100 µM	> 100 µM	> 100 µM										
COc1ccc(-c2cc(-c3ccc(Cl)cc3)nc(SCCCCCCC(=O)NO)n2)cc1	10.2 µM	3.05 µM	7.81 µM	> 50 µM	6.54 µM	12.5 µM	2.8 µM	7.72 µM	10.7 µM	3.67 µM	1430 nM	758 nM	1560 nM	1120 nM	1790 nM	1410 nM	1190 nM	1460 nM	1620 nM	1170 nM
CN[C@H]1CC[C@]23C[C@]24CC[C@]2(C)[C@@H]([C@H](C)N(C)C)CC[C@@]2(C)[C@@H]4CC[C@H]3C1(C)C	32.5 µM	24.5 µM	35.6 µM	31.3 µM	31.5 µM	35.1 µM	36.3 µM	25.8 µM	39.2 µM	26 µM										
CSC1SCC2C(=O)N(C)C(C(C)C)C(=O)OCC(NC(=O)c3cnc4ccccc4n3)C(=O)NC(C)C(=O)N(C)C1C(=O)N(C)C(C(C)C)C(=O)OCC(NC(=O)c1cnc3ccccc3n1)C(=O)NC(C)C(=O)N2C (stereo not drawn)											< 1 nM	3.28 nM	< 1 nM	< 1 nM	< 1 nM	< 1 nM	< 1 nM	3.22 nM	< 1 nM	< 1 nM
NC(N)=NC(N)=Nc1ccc(S(N)(=O)=O)cc1	> 100 µM	> 100 µM	> 100 µM	> 100 µM	> 100 µM	> 100 µM	> 100 µM	> 100 µM	> 100 µM	> 100 µM										
CCCc1n(Cc2ccc3ccccc3n2)cc[n+]1Cc1ccc2ccccc2c1	11.7 µM	25.3 µM	10.6 µM	1.62 µM	10.6 µM	3.48 µM	0.933 µM	25.4 µM	11.8 µM	1.12 µM	1910 nM	12000 nM	479 nM	275 nM	1010 nM	807 nM	312 nM	12000 nM	1880 nM	188 nM
CCCCCCC/C=C1\CCC(CN(C)C)C1=O (stereo not drawn)	18 µM	29.1 µM	32.7 µM	5.26 µM	35.8 µM	36.3 µM	9.09 µM	21.7 µM	50 µM	33.7 µM										
CC(C)=CCc1c(O)c(C(=O)CC(C)C)c(O)c2c(-c3ccccc3)cc(=O)oc12	> 50 µM	> 50 µM	> 50 µM	16.6 µM	> 50 µM	> 50 µM	27.7 µM	> 50 µM	> 50 µM	4.84 µM	14500 nM	8850 nM	6840 nM	2680 nM	12500 nM	9700 nM	7820 nM	7110 nM	12000 nM	1040 nM
CCOC(=O)C(=O)C(/C(=N/N(C)C)C(=O)Nc1ccc(C)cc1C)c1nc2ccccc2[nH]c1=O (stereo not drawn)	> 100 µM	> 100 µM	> 100 µM	> 100 µM	> 100 µM	> 100 µM	> 100 µM	> 100 µM	> 100 µM	> 100 µM										
CC(C)c1cc(C(=O)[O-])c(O)c(C(C)C)c1.CC(C)c1cc(C(=O)[O-])c(O)c(C(C)C)c1.CC(C)c1cc(C(=O)[O-])c(O)c(C(C)C)c1.CC(C)c1cc(C(=O)[O-])c(O)c(C(C)C)c1.CC(C)c1cc(C(=O)[O-])c(O)c(C(C)C)c1.CC(C)c1cc(C(=O)[O-])c(O)c(C(C)C)c1.[Cu+2].[Mn+2].[Mn+2]	29.5 µM	32.6 µM	45.6 µM	50.4 µM	82.7 µM	38.4 µM	53.9 µM	> 100 µM	33.8 µM	54 µM	14800 nM	16500 nM	20100 nM	14500 nM	35500 nM	15200 nM	17700 nM	39300 nM	11100 nM	19900 nM
N#Cc1ccc(NC(=O)Nc2nc3ccc(OC(F)(F)F)cc3s2)cc1	12 µM	7.92 µM	6.02 µM	13.3 µM	16.8 µM	16.1 µM	21.3 µM	6.45 µM	11.1 µM		1610 nM	1670 nM	581 nM	1000 nM	3060 nM	2000 nM	2440 nM	1380 nM	1210 nM	324 nM

— PubChem BioAssay (NCI)
